Where “and” joins values, the source holds several entries; their conditions need not be identical. Equal values may be shown once. Entries after “also recorded” stand apart in the source; their conditions may differ.
Legend:
[1] = biological target: T1, BTK-NanoLuc fusion (Homo sapiens, UniProt Q06187); experiment: NanoBRET BTK in-cell target engagement assay; assay type: cell-based; conditions: for NanoBRET(%): Figure 3c
T1 construct: host or cells: HEK 293T/17
Description: The target engagement assay for BTK or CRBN was from Promega (BTK kit, Cat. No. N2500; CRBN kit, Cat. No. CS1810C136) and was performed according to the manufacture’s instruction with some modifications. Briefly, HEK 293/T17 cells (ATCC) were transiently transfected with BTK-NanoLuc® fusion vector or NanoLuc®-CRBN fusion vector (Promega) in 0.125 M CaCl2 and 1x HBS. Forty-eight hours after transfection, the cells were resuspended in Opti-MEM medium (Life Technologies, Cat. No. 11058021) at the density of 2 × 10^5 cells per mL and were plated into 96-well plates (Corning, Cat. No. CLS3600). Cells were incubated with 1.0 µM (BTK) or 0.5 µM (CRBN) NanoBRET™ Tracer and serially diluted unlabeled BTK PROTAC compounds (from 10 to 0.0032 µM, 5-fold dilution) for 2 h at 37 °С with 5% CO2 in an incubator. After 2 h incubation, the 3X Nano-Glo® Substrate with NanoLuc® extracellular inhibitor were added to cells and developed for 3 min at room temperature. BRET signals were collected using a BioTek SYNERGY H1 microplate reader equipped with a 450/80-nm BP filter for donor emission and a 610-nm LP filter for acceptor emission. BRET Ratio was calculated with the equation: [(Acceptor sample/Donor sample)–(Acceptor no tracer control/Donor no tracer control)] × 1000. The IC50 of the compound against its BTK or CRBN tracer was calculated using GraphPad Prism software.

[2] = biological target: BTK (Homo sapiens, UniProt Q06187); experiment: BTK degradation in MOLM-14 cells (western blot); assay type: cell-based; design: endogenous in cells; host or cells: MOLM-14; conditions: for Quantification anti-BTK / anti-β-actin (BTK level vs DMSO): Figure 2b, duplicates
[3] = system: MOLM-14 cells; experiment: Quantification of intracellular drug concentration by LC-MS; assay type: in vitro ADME; conditions: for Intracellular concentration: Concentration of compound, AVE / intracellular amount, AVE / intracellular amount / Intracellular concentration: Concentration of compound: 200 nM; for Intracellular concentration: Concentration of compound, AVE / intracellular amount, AVE: average of 3 replicates; for intracellular amount: initial amount 0.4000 nmol; for Intracellular concentration: Concentration of compound: sample volume 400 µL
Description: MOLM-14 cells were seeded at a density of 0.5 × 10^6 per mL in 2 mL medium. […] The samples were immediately centrifuged at 12,000 × g for 15 min at 4 °C, then removing the supernatant. In all, 400 μL of NP-40 lysis buffer was added to the cell pellet and mixed thoroughly. The mixtures were rocked for 1 h at 4 °C and centrifuged at 12,000 × g for 15 min at 4 °C. Then the supernatant was transferred to new EP tubes. In total, 20 µL supernatant was extracted with 180 µL of acetonitrile (containing internal standard: 250 nM of RNC-Ctrl) and centrifuged at the same conditions described above. Take 75 μL of supernatant for liquid chromatography-mass spectrometry analysis.
The mass spectrometer was operated in positive SIM ion mode (fragmentor 120 V; cycle time 0.6 s/cycle; Agilent Technologies 6130 Quadrupole LC/MS).

T1 sequence (Q06187 whole entry, the tested form may be a part): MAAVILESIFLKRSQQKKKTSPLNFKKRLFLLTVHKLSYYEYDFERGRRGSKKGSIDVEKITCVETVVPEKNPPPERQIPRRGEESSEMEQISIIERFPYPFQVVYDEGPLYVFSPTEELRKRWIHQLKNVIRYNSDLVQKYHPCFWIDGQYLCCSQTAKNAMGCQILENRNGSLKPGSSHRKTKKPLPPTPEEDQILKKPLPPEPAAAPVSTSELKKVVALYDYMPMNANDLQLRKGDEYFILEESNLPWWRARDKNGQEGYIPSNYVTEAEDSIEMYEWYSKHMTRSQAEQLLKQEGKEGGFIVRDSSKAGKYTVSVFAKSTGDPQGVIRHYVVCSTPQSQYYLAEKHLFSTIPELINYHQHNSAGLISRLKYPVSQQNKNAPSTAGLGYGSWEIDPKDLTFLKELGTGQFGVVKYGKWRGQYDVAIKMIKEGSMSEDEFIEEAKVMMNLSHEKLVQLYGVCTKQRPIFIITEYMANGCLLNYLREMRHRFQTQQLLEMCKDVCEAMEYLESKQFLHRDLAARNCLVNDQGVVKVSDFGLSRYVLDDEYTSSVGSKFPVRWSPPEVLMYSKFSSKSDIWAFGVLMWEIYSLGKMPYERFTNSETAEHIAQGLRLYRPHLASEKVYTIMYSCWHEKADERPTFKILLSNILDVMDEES
BTK, sequence (Q06187 whole entry): as the sequence (Q06187 whole entry, the tested form may be a part) above

NanoBRET(%) ([1]; 1.00E-05 M, triplicates): 10.4557% and 9.057% and 9.053%
NanoBRET(%) ([1]; 1.60E-08 M, triplicates): 96.913% and 93.9025% and 100.93%
NanoBRET(%) ([1]; 2.00E-06 M, triplicates): 7.89% and 9.51% and 9.23%
NanoBRET(%) ([1]; 3.20E-09 M, triplicates): 94.8058% and 107.984% and 103.91%
NanoBRET(%) ([1]; 4.00E-07 M, triplicates): 11.1403% and 9.255% and 17.6554%
NanoBRET(%) ([1]; 8.00E-08 M, triplicates): 65.3589% and 58.7338% and 70.2106%
IC50 ([1]; HEK-293 cells, BTK tracer 1.0 µM, Table 1 / Fig. 3c, triplicates, read-out: BTK TE IC50,TE): 130 nM
K′P,D (relative intracellular accumulation coefficient) ([1]; Kd (BTK)/IC50,TE (BTK)): 2.3 × 10^−2
BTK engagement ([1]; at 400 nM): ~ 100%
intracellular accumulation of RC-1 relative to the compound ([1]; from K′P,D values, BTK (Table 1)): 6 folds
Quantification anti-BTK / anti-β-actin (BTK level vs DMSO) ([2]; 8 nM): 93.1337 and 89.8918
Quantification anti-BTK / anti-β-actin (BTK level vs DMSO) ([2]; 40 nM): 73.5656 and 73.5943
Quantification anti-BTK / anti-β-actin (BTK level vs DMSO) ([2]; 200 nM): 64.1549 and 63.4726
Intracellular concentration: Concentration of compound, AVE ([3]; 5 min): 0.0785 µM
intracellular amount, AVE ([3]; 5 min): 0.0314 nmol
Intracellular concentration: Concentration of compound ([3]; 5 min, single replicates): 0.0713 µM and 0.0812 µM and 0.0831 µM
Intracellular concentration: Concentration of compound, AVE ([3]; 15 min): 0.0779 µM
intracellular amount, AVE ([3]; 15 min): 0.0311 nmol
Intracellular concentration: Concentration of compound ([3]; 15 min, single replicates): 0.0767 µM and 0.0806 µM and 0.0763 µM
Intracellular concentration: Concentration of compound, AVE ([3]; 30 min): 0.0702 µM
intracellular amount, AVE ([3]; 30 min): 0.0281 nmol
Intracellular concentration: Concentration of compound ([3]; 30 min, single replicates): 0.0648 µM and 0.0740 µM and 0.0719 µM
Intracellular concentration: Concentration of compound, AVE ([3]; 60 min): 0.0651 µM
intracellular amount, AVE ([3]; 60 min): 0.0260 nmol
Intracellular concentration: Concentration of compound ([3]; 60 min, single replicates): 0.0686 µM and 0.0666 µM and 0.0601 µM
Intracellular concentration: Concentration of compound, AVE ([3]; 90 min): 0.0717 µM
intracellular amount, AVE ([3]; 90 min): 0.0287 nmol
Intracellular concentration: Concentration of compound ([3]; 90 min, single replicates): 0.0688 µM and 0.0725 µM and 0.0738 µM
Intracellular concentration: Concentration of compound, AVE ([3]; 120 min): 0.0652 µM
intracellular amount, AVE ([3]; 120 min): 0.0261 nmol
Intracellular concentration: Concentration of compound ([3]; 120 min, single replicates): 0.0598 µM and 0.0703 µM and 0.0653 µM
Intracellular concentration: Concentration of compound, AVE ([3]; 240 min): 0.0595 µM
intracellular amount, AVE ([3]; 240 min): 0.0238 nmol
Intracellular concentration: Concentration of compound ([3]; 240 min, single replicates): 0.0571 µM and 0.0598 µM and 0.0616 µM
Cellular concentration ([3]; 5 min, Mean): 0.0314 nmol/million cells
Cellular concentration ([3]; 15 min, Mean): 0.0311 nmol/million cells
Cellular concentration ([3]; 30 min, Mean): 0.0281 nmol/million cells
Cellular concentration ([3]; 90 min, Mean): 0.0287 nmol/million cells
Cellular concentration ([3]; 120 min, Mean): 0.0261 nmol/million cells
Cellular concentration ([3]; 240 min, Mean): 0.0238 nmol/million cells
SMILES: CN(CC=CC(=O)N1CCCC(n2nc(-c3ccc(Oc4ccccc4)cc3)c3c(N)ncnc32)C1)CCCNC(=O)CNc1cccc2c1C(=O)N(C1CCC(=O)NC1=O)C2=O (centres unmarked) [IRC-1]
BTK degradation (in words) ([2]; MOLM-14 cells, indicated doses, 24 h): induced inefficient BTK degradation; also recorded: very little BTK degradation was observed
intracellular amount ([3]; 5 min, single replicates): 0.0285 nmol and 0.0325 nmol and 0.0332 nmol
intracellular amount ([3]; 15 min, single replicates): 0.0307 nmol and 0.0322 nmol and 0.0305 nmol
intracellular amount ([3]; 30 min, single replicates): 0.0259 nmol and 0.0296 nmol and 0.0288 nmol
intracellular amount ([3]; 60 min, single replicates): 0.0274 nmol and 0.0266 nmol and 0.0240 nmol
intracellular amount ([3]; 90 min, single replicates): 0.0275 nmol and 0.0290 nmol and 0.0295 nmol
intracellular amount ([3]; 120 min, single replicates): 0.0239 nmol and 0.0281 nmol and 0.0261 nmol
intracellular amount ([3]; 240 min, single replicates): 0.0228 nmol and 0.0239 nmol and 0.0246 nmol
Cellular concentration ([3]; 5 min, single replicates, MOLM-14, 200 nM): 0.0285 nmol/million cells and 0.0325 nmol/million cells and 0.0332 nmol/million cells
Cellular concentration ([3]; 15 min, single replicates, MOLM-14, 200 nM): 0.0307 nmol/million cells and 0.0322 nmol/million cells and 0.0305 nmol/million cells
Cellular concentration ([3]; 30 min, single replicates, MOLM-14, 200 nM): 0.0259 nmol/million cells and 0.0296 nmol/million cells and 0.0288 nmol/million cells
Cellular concentration ([3]; 60 min, Mean): 0.0260 nmol/million cells and 0.026 nmol/million cells
Cellular concentration ([3]; 60 min, single replicates, MOLM-14, 200 nM): 0.0240 nmol/million cells and 0.0274 nmol/million cells and 0.0266 nmol/million cells and 0.024 nmol/million cells
Cellular concentration ([3]; 90 min, single replicates, MOLM-14, 200 nM): 0.0290 nmol/million cells and 0.0275 nmol/million cells and 0.029 nmol/million cells and 0.0295 nmol/million cells
Cellular concentration ([3]; 120 min, single replicates, MOLM-14, 200 nM): 0.0239 nmol/million cells and 0.0281 nmol/million cells and 0.0261 nmol/million cells
Cellular concentration ([3]; 240 min, single replicates, MOLM-14, 200 nM): 0.0228 nmol/million cells and 0.0239 nmol/million cells and 0.0246 nmol/million cells

From publication PMC7450057, “Enhancing intracellular accumulation and target engagement of PROTACs with reversible covalent chemistry” (Nature Communications, 2020)
